According to PubChem BioAssay (NCI):
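1) Cells in 96-well plates. 2) Compound, 48 h, 5 concentrations. 3) Linear interpolation between surrounding doses. 4) Unreached endpoint = highest concentration. TGI denotes the concentration required for complete inhibition of growth.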

Key:
Assay in all cases: NCI tumour cell line growth inhibition, 48 h
MALME-3M melanoma = test system: MALME-3M melanoma
DMS 273 small cell lung = test system: DMS 273 small cell lung
HOP-92 NSCLC = test system: HOP-92 NSCLC
XF 498 CNS = test system: XF 498 CNS
TK-10 renal = test system: TK-10 renal
OVCAR-5 ovarian = test system: OVCAR-5 ovarian
M14 melanoma = test system: M14 melanoma
SNB-19 CNS = test system: SNB-19 CNS
SN12C renal = test system: SN12C renal
LOX IMVI melanoma = test system: LOX IMVI melanoma
UACC-62 melanoma = test system: UACC-62 melanoma
KM20L2 colon = test system: KM20L2 colon
SK-MEL-2 melanoma = test system: SK-MEL-2 melanoma
OVCAR-3 ovarian = test system: OVCAR-3 ovarian
DMS 114 small cell lung = test system: DMS 114 small cell lung
HOP-62 NSCLC = test system: HOP-62 NSCLC
IGROV1 ovarian = test system: IGROV1 ovarian
U251 CNS = test system: U251 CNS
HL-60(TB) leukemia = test system: HL-60(TB) leukemia
HT29 colon = test system: HT29 colon

Measured: TGI

N#CCCN(CCC#N)c1ccc(/C=C(/NC(=O)Nc2ccccc2Cl)NC(=O)c2cc([N+](=O)[O-])ccc2Cl)cc1
> 100 µM: MALME-3M melanoma | DMS 273 small cell lung | HOP-92 NSCLC | XF 498 CNS | TK-10 renal | OVCAR-5 ovarian | M14 melanoma | SNB-19 CNS | SN12C renal | LOX IMVI melanoma | UACC-62 melanoma | KM20L2 colon | SK-MEL-2 melanoma | OVCAR-3 ovarian | DMS 114 small cell lung | HOP-62 NSCLC | IGROV1 ovarian | U251 CNS

Cn1c(=O)[nH]c2c(c1=O)C(=O)CN2
> 100 µM: MALME-3M melanoma | DMS 273 small cell lung | XF 498 CNS | TK-10 renal | OVCAR-5 ovarian | M14 melanoma | SNB-19 CNS | HL-60(TB) leukemia | SN12C renal | LOX IMVI melanoma | KM20L2 colon | SK-MEL-2 melanoma | DMS 114 small cell lung | IGROV1 ovarian | U251 CNS

CN(C(=O)c1ccccc1)c1ccc2c(c1)C(=O)c1ccccc1C2=O
> 100 µM: MALME-3M melanoma | DMS 273 small cell lung | HOP-92 NSCLC | XF 498 CNS | TK-10 renal | OVCAR-5 ovarian | M14 melanoma | HT29 colon | SN12C renal | LOX IMVI melanoma | UACC-62 melanoma | KM20L2 colon | SK-MEL-2 melanoma | OVCAR-3 ovarian | DMS 114 small cell lung | HOP-62 NSCLC | IGROV1 ovarian | U251 CNS

O=C(NCCN(CCNC(=O)c1cccc(=O)n1O)CCNC(=O)c1cccc(=O)n1O)c1cccc(=O)n1O
> 100 µM: MALME-3M melanoma | HOP-92 NSCLC | TK-10 renal | OVCAR-5 ovarian | M14 melanoma | HT29 colon | SNB-19 CNS | HL-60(TB) leukemia | SN12C renal | UACC-62 melanoma | SK-MEL-2 melanoma | OVCAR-3 ovarian | HOP-62 NSCLC | IGROV1 ovarian | U251 CNS

COC(=O)C(=O)C(C(C)=O)C(=O)C(=O)Nc1ccc(C)cc1C (centres undefined)
> 100 µM: DMS 273 small cell lung | HOP-92 NSCLC | XF 498 CNS | TK-10 renal | OVCAR-5 ovarian | M14 melanoma | HT29 colon | SNB-19 CNS | HL-60(TB) leukemia | SN12C renal | LOX IMVI melanoma | UACC-62 melanoma | KM20L2 colon | SK-MEL-2 melanoma | DMS 114 small cell lung | HOP-62 NSCLC | IGROV1 ovarian | U251 CNS
